{
  "source": "paper PMC8389614",
  "about": "“A Comparison of Acute Pharmacological Effects of Methylone and MDMA Administration in Humans and Oral Fluid Concentrations as Biomarkers of Exposure” (Biology, 2021)",
  "key": {"healthy poly-drug users [1]": {"system": "healthy poly-drug users", "experiment": "Subjective effects, visual analogue scales (VAS)", "assay_type": "in vivo, humans", "design": "key to VAS stimulated Dunnet’s Test / VAS change in lights Dunnet’s Test / VAS different body feeling Dunnet’s Test / VAS different surrounding Dunnet’s Test / VAS dizziness Dunnet’s Test / VAS headache Dunnet’s Test / VAS face flushing Dunnet’s Test: “a” (times 0–1 h); “b” (times 0–2 h); “c” (times 0–4 h); not significant (NS)", "from_the_text": "(§1) The study was designed as a non-controlled prospective observational study in a naturalistic setting with methylone and MDMA self-administration. The methodology, including procedures and evaluations, coincides with previous observational–naturalistic studies aimed at evaluating the acute effects of other NPS [38, 39, 40]. Six subjects (5 M, 1 F) self-administered MDMA and 8 subjects (5 M, 3 F) self-administered methylone. Each subject participated only in one session. Participants brought their own substance obtained from an unknown source, which was tested by Energy Control, a harm reduction organization that provides a drug checking service to drug users. Pills containing methylone and MDMA were analyzed by gas chromatography associated with mass spectrometry (GC/MS), a technique that traces the presence of the most frequent drugs of abuse, such as MDMA, cocaine, heroin, amphetamine and methamphetamine, LSD, and multiple NPS (methylone, mephedrone, and other synthetic cathinones, synthetic cannabinoids, tryptamines, among others).\n(§2) In both sessions, participants selected the dose of methylone or MDMA according to their previous drug use experience. Doses of methylone could be selected from a range (75–300 mg) that was previously defined according to the consulted literature. The WHO Expert Committee on Drug Dependence (Thirty-Sixth Meeting, Geneva, Switzerland, 16–20 June 2014) established that 60 mg of methylone was the threshold dose and doses over 250 mg were often related to very strong activity. Some users have reported uses of 300 mg of methylone as a common dose [www.erowid.org] (accessed on 15 June 2021). The mean of the selected doses of MDMA was 87.50 mg (3 subjects ingested 75 mg (2 males and 1 female), 3 males 100 mg). In the other study session, methylone doses ranged from 100 to 300 mg, with a mean of 187.50 mg. Based on their dose selection, 1 male ingested 100 mg, 2 subjects 150 mg (1 male and 1 female), 4 subjects 200 mg (2 males and 2 females), and 1 male 300 mg.\n(§3) The sessions were conducted in a naturalistic setting. Participants were allowed to talk, read, listen to music, or play games, except during the evaluation times. However, they were asked to refrain from talking about the effects of the substance. All the subjects were evaluated simultaneously at baseline, 1, 2, and 4 h after administration of methylone or MDMA, which occurred approximately at 16:00 h. At each time point, evaluations were followed in a specific order: physiological effects, oral fluid collection, and subjective effects scales and questionnaires.\n(§4) Subjective effects were evaluated at baseline, 1, 2, and 4 h after self-administration using visual analogue scales (VAS), the Addiction Research Center Inventory (ARCI), and the Evaluation of Subjective Effects of Substances with Abuse Potential questionnaire (VESSPA-SSE).\nVisual analogue scales (100 mm, from “not at all” to “extremely”) contained 30 items that subjects were asked to rate, such as: intensity, stimulated, high, good effects, liking, happiness, drunkenness, changes in colors, changes in shapes, changes in lights, hallucinations (seeing lights or spots), hallucinations (seeing of animals), changes in hearing, hallucinations (hearing sounds or voices), different or changed body feeling, unreal body feeling, changes in distances, different surroundings, unreal surroundings, confusion, fear, depression or sadness, drowsiness, dizziness, bad effects, headache, sickness, vertigo, shortness of breath, and face flushing.\nVital signs (SBP, DBP, and HR) and subjective effects (VAS, ARCI, and VESSPA-SSE) were baseline-adjusted. Maximum effects and the time in which maximum effects appeared were determined, and the area under the curve (AUC0–4h) was calculated with the trapezoidal rule. […]"}, "healthy poly-drug users [2]": {"system": "healthy poly-drug users", "experiment": "Subjective effects, VESSPA-SSE questionnaire", "assay_type": "in vivo, humans", "design": "key to VESSPA PS Dunnet’s Test: “a” (times 0–1 h); “b” (times 0–2 h); “c” (times 0–4 h); not significant (NS)", "from_the_text": "as §1, §2, §3, §4\nThe VESSPA-SSE is a questionnaire sensitive to subjective effects related to stimulants such as MDMA that includes six subscales: sedation (S), psychosomatic anxiety (ANX), changes in perception (CP), pleasure and sociability (SOC), activity and energy (ACT), and psychotic symptoms (PS).\nVital signs (SBP, DBP, and HR) and subjective effects (VAS, ARCI, and VESSPA-SSE) were baseline-adjusted. Maximum effects and the time in which maximum effects appeared were determined, and the area under the curve (AUC0–4h) was calculated with the trapezoidal rule.\nThirdly, to find possible significant changes from baseline, a Dunnett multiple comparison test was conducted to compare each time point with baseline in both drug conditions (0–1 h, 0–2 h, 0–4 h)."}, "5-HT2A receptors": {"system": "5-HT2A receptors", "design": "method as in PMID 25237120, PMID 23583454", "conditions": "significantly lower potencies than MDMA; cited from earlier work"}, "5-HT1A receptor": {"system": "5-HT1A receptor", "design": "method as in PMID 25237120, PMID 23583454", "conditions": "cited from earlier work"}, "[3]": {"conditions": "oral, methylone 100–300 mg n=8, MDMA 75–100 mg n=6, baseline-adjusted, mean ± SD"}, "[4]": {"conditions": "time points significantly different from baseline"}},
  "data": [
    {"smiles": "CNC(C)C(=O)c1ccc2c(c1)OCO2", "note": "(stereo not shown) [Methylone, 3,4-methylenedioxymethcathinone]", "values": [
      {"measurement": "Time at which subjective effects in general reached maximum values", "setting": "healthy poly-drug users [1]; oral, VAS, ARCI, VESSPA-SSE overall", "value": 2, "unit": "h"},
      {"measurement": "VAS change in lights AUC0–4h", "setting": "healthy poly-drug users [1]; [3]", "value": "10.88 ± 11.85"},
      {"measurement": "VAS change in lights Emax", "setting": "healthy poly-drug users [1]; [3]", "value": "4.88 ± 4.82", "unit": "mm"},
      {"measurement": "VAS content AUC0–4h", "setting": "healthy poly-drug users [1]; [3]", "value": "80.06 ± 82.59"},
      {"measurement": "VAS content Emax", "setting": "healthy poly-drug users [1]; [3]", "value": "35.25 ± 30.38", "unit": "mm"},
      {"measurement": "VAS different body feeling AUC0–4h", "setting": "healthy poly-drug users [1]; [3]", "value": "44.13 ± 43.86"},
      {"measurement": "VAS different body feeling Emax", "setting": "healthy poly-drug users [1]; [3]", "value": "22.25 ± 20.60", "unit": "mm"},
      {"measurement": "VAS different surrounding AUC0–4h", "setting": "healthy poly-drug users [1]; [3]", "value": "5.69 ± 10.39"},
      {"measurement": "VAS different surrounding Emax", "setting": "healthy poly-drug users [1]; [3]", "value": "4.38 ± 7.50", "unit": "mm"},
      {"measurement": "VAS dizziness AUC0–4h", "setting": "healthy poly-drug users [1]; [3]", "value": "2.63 ± 3.02"},
      {"measurement": "VAS dizziness Emax", "setting": "healthy poly-drug users [1]; [3]", "value": "2.13 ± 2.53", "unit": "mm"},
      {"measurement": "VAS face flushing AUC0–4h", "setting": "healthy poly-drug users [1]; [3]", "value": "64.50 ± 56.75"},
      {"measurement": "VAS face flushing Emax", "setting": "healthy poly-drug users [1]; [3]", "value": "31.25 ± 21.91", "unit": "mm"},
      {"measurement": "VAS good effects AUC0–4h", "setting": "healthy poly-drug users [1]; [3]", "value": "74.06 ± 67.08"},
      {"measurement": "VAS good effects Emax", "setting": "healthy poly-drug users [1]; [3]", "value": "35.63 ± 30.63", "unit": "mm"},
      {"measurement": "VAS headache AUC0–4h", "setting": "healthy poly-drug users [1]; [3]", "value": "23.63 ± 28.94"},
      {"measurement": "VAS headache Emax", "setting": "healthy poly-drug users [1]; [3]", "value": "20.25 ± 28.93", "unit": "mm"},
      {"measurement": "VAS high AUC0–4h", "setting": "healthy poly-drug users [1]; [3]", "value": "55.06 ± 53.54"},
      {"measurement": "VAS high Emax", "setting": "healthy poly-drug users [1]; [3]", "value": "24.0 ± 21.28", "unit": "mm"},
      {"measurement": "VAS intensity AUC0–4h", "setting": "healthy poly-drug users [1]; [3]", "value": "45.88 ± 43.66"},
      {"measurement": "VAS intensity Emax", "setting": "healthy poly-drug users [1]; [3]", "value": "20.0 ± 16.48", "unit": "mm"},
      {"measurement": "VAS stimulated AUC0–4h", "setting": "healthy poly-drug users [1]; [3]", "value": "50.56 ± 47.38"},
      {"measurement": "VAS stimulated Emax", "setting": "healthy poly-drug users [1]; [3]", "value": "22.50 ± 18.81", "unit": "mm"},
      {"measurement": "VAS change in lights Tmax", "setting": "healthy poly-drug users [1]; oral, methylone 100–300 mg n=8, MDMA 75–100 mg n=6, median (min–max)", "value": "1.0 (0.0–2.0) h"},
      {"measurement": "VAS change in lights Dunnet’s Test", "setting": "healthy poly-drug users [1]; [4]", "value": "a, b"},
      {"measurement": "VAS content Dunnet’s Test", "setting": "healthy poly-drug users [1]; [4]", "value": "a, b"},
      {"measurement": "VAS different body feeling Dunnet’s Test", "setting": "healthy poly-drug users [1]; [4]", "value": "NS"},
      {"measurement": "VAS different surrounding Dunnet’s Test", "setting": "healthy poly-drug users [1]; [4]", "value": "NS"},
      {"measurement": "VAS dizziness Dunnet’s Test", "setting": "healthy poly-drug users [1]; [4]", "value": "a"},
      {"measurement": "VAS face flushing Dunnet’s Test", "setting": "healthy poly-drug users [1]; [4]", "value": "b"},
      {"measurement": "VAS good effects Dunnet’s Test", "setting": "healthy poly-drug users [1]; [4]", "value": "a, b"},
      {"measurement": "VAS headache Dunnet’s Test", "setting": "healthy poly-drug users [1]; [4]", "value": "c"},
      {"measurement": "VAS high Dunnet’s Test", "setting": "healthy poly-drug users [1]; [4]", "value": "a, b"},
      {"measurement": "VAS intensity Dunnet’s Test", "setting": "healthy poly-drug users [1]; [4]", "value": "a, b"},
      {"measurement": "VAS stimulated Dunnet’s Test", "setting": "healthy poly-drug users [1]; [4]", "value": "b"},
      {"measurement": "VESSPA ACT (activity and energy) AUC0–4h", "setting": "healthy poly-drug users [2]; [3]", "value": "24.44 ± 17.87"},
      {"measurement": "VESSPA ACT (activity and energy) Emax", "setting": "healthy poly-drug users [2]; [3]", "value": "9.75 ± 6.25", "unit": "score"},
      {"measurement": "VESSPA ANX (psychosomatic anxiety) AUC0–4h", "setting": "healthy poly-drug users [2]; [3]", "value": "17.94 ± 11.17"},
      {"measurement": "VESSPA ANX (psychosomatic anxiety) Emax", "setting": "healthy poly-drug users [2]; [3]", "value": "7.50 ± 4.69", "unit": "score"},
      {"measurement": "VESSPA PS (psychotic symptoms) AUC0–4h", "setting": "healthy poly-drug users [2]; [3]", "value": "5.63 ± 5.58"},
      {"measurement": "VESSPA PS (psychotic symptoms) Emax", "setting": "healthy poly-drug users [2]; [3]", "value": "2.63 ± 2.20", "unit": "score"},
      {"measurement": "VESSPA S (sedation) AUC0–4h", "setting": "healthy poly-drug users [2]; [3]", "value": "7.06 ± 6.45"},
      {"measurement": "VESSPA S (sedation) Emax", "setting": "healthy poly-drug users [2]; [3]", "value": "3.38 ± 2.50", "unit": "score"},
      {"measurement": "VESSPA SOC (pleasure and sociability) AUC0–4h", "setting": "healthy poly-drug users [2]; [3]", "value": "31.31 ± 25.40"},
      {"measurement": "VESSPA SOC (pleasure and sociability) Emax", "setting": "healthy poly-drug users [2]; [3]", "value": "12.25 ± 8.31", "unit": "score"},
      {"measurement": "VESSPA ACT Dunnet’s Test", "setting": "healthy poly-drug users [2]; [4]", "value": "a, b"},
      {"measurement": "VESSPA ANX Dunnet’s Test", "setting": "healthy poly-drug users [2]; [4]", "value": "b, c"},
      {"measurement": "VESSPA PS Dunnet’s Test", "setting": "healthy poly-drug users [2]; [4]", "value": "b"},
      {"measurement": "VESSPA S Dunnet’s Test", "setting": "healthy poly-drug users [2]; [4]", "value": "b, c"},
      {"measurement": "VESSPA SOC Dunnet’s Test", "setting": "healthy poly-drug users [2]; [4]", "value": "a, b"},
      {"measurement": "Affinity for binding 5-HT2A receptors", "setting": "5-HT2A receptors", "value": "some affinity"},
      {"measurement": "Activity at the 5-HT1A receptor", "setting": "5-HT1A receptor", "value": "partial agonist"}
    ]}
  ]
}
